Assay results published in publication PMC10280043 (RSC Advances, 2023).

Key:
hCAII = hCAII (Homo sapiens, UniProt P00918); assay: Carbonic anhydrase inhibition assay, hCAII; type: biochemical
hCAIX = hCAIX (Homo sapiens, UniProt Q16790); assay: biochemical
hCAXII = hCAXII (Homo sapiens, UniProt O43570); assay: Carbonic anhydrase inhibition assay, hCAXII; type: biochemical
hCAXII, sequence (O43570 25-354): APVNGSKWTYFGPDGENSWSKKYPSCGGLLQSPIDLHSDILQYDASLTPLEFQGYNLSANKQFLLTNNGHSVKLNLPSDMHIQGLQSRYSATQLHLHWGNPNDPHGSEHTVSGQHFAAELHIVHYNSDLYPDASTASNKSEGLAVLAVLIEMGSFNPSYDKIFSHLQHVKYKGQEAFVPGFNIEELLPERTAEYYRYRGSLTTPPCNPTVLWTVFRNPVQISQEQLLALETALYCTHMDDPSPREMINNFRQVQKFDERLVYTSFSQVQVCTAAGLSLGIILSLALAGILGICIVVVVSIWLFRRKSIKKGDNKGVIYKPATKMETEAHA

SMILES | IC50 (hCAII) [µM] | IC50 (hCAIX) [µM] | IC50 (hCAXII) [µM]
NS(=O)(=O)c1ccc(N2N=C(c3ccccc3O)CC2c2ccc(Cl)cc2)cc1 (stereo not drawn) [4c, 4-(5-(4-Chlorophenyl)-3-(2-hydroxyphenyl)-4,5-dihydro-1H-pyrazol-1-yl)benzene sulfonamide] | 1.2 ± 0.4 | 7.08 ± 0.4 | 2.87 ± 0.02
Cc1ccc(C2CC(c3cc(Br)ccc3O)=NN2c2ccc(S(N)(=O)=O)cc2)cc1 (stereo not drawn) [4f, 4-(3-(5-Bromo-2-hydroxyphenyl)-5-(p-tolyl)-4,5-dihydro-1H-pyrazol-1-yl)benzene sulfonamide] |  | 0.24 ± 0.08 | 6.97 ± 0.14
COc1cccc(C2CC(c3cc(Br)ccc3O)=NN2c2ccc(S(N)(=O)=O)cc2)c1 (stereo not drawn) [4g, 4-(3-(5-Bromo-2-hydroxyphenyl)-5-(3-methoxyphenyl)-4,5-dihydro-1H-pyrazol-1-yl)benzene sulfonamide] | 8.26 ± 0.99 | 5.28 ± 0.69 | 0.12 ± 0.07
NS(=O)(=O)c1ccc(N2N=C(c3cc(Br)ccc3O)CC2c2ccc(Br)cc2)cc1 (stereo not drawn) [4h, 4-(3-(5-Bromo-2-hydroxyphenyl)-5-(4-bromophenyl)-4,5-dihydro-1H-pyrazol-1-yl)benzene sulfonamide] | 17.2 ± 1.77 | 0.26 ± 0.04 | 0.38 ± 0.1
COc1cccc(C2CC(c3cc(Cl)cc(Cl)c3O)=NN2c2ccc(S(N)(=O)=O)cc2)c1 (stereo not drawn) [4i, 4-(3-(3,5-Dichloro-2-hydroxyphenyl)-5-(3-methoxyphenyl)-4,5-dihydro-1H-pyrazol-1-yl)benzene sulfonamide] | 8.15 ± 0.19 | 4.51 ± 0.22 | 1.6 ± 0.01
Cc1ccc(C2CC(c3ccc(F)cc3O)=NN2c2ccc(S(N)(=O)=O)cc2)cc1 (stereo not drawn) [4j, 4-(3-(4-Fluoro-2-hydroxyphenyl)-5-(p-tolyl)-4,5-dihydro-1H-pyrazol-1-yl)benzene sulfonamide] | 0.39 ± 0.05 | 0.15 ± 0.07 | 0.28 ± 0.05
COc1ccccc1C1CC(c2ccc(F)cc2O)=NN1c1ccc(S(N)(=O)=O)cc1 (stereo not drawn) [4k, 4-(3-(4-Fluoro-2-hydroxyphenyl)-5-(2-methoxyphenyl)-4,5-dihydro-1H-pyrazol-1-yl)benzene sulfonamide] |  |  | 1 ± 0.09
